Experimental data from patent US20260184708A1, “PYRIDAZINONES AND METHODS OF USE THEREOF” (GFB (ABC), LLC, priority 2017, published 2026).
Like-named read-outs stand apart in the source and are kept apart here.

Target: T1, TRPC5 (Homo sapiens, UniProt Q9UL62)
T1 construct: expressed in transfected cells; host or cells: HEK 293
T1 sequence (Q9UL62 1-973): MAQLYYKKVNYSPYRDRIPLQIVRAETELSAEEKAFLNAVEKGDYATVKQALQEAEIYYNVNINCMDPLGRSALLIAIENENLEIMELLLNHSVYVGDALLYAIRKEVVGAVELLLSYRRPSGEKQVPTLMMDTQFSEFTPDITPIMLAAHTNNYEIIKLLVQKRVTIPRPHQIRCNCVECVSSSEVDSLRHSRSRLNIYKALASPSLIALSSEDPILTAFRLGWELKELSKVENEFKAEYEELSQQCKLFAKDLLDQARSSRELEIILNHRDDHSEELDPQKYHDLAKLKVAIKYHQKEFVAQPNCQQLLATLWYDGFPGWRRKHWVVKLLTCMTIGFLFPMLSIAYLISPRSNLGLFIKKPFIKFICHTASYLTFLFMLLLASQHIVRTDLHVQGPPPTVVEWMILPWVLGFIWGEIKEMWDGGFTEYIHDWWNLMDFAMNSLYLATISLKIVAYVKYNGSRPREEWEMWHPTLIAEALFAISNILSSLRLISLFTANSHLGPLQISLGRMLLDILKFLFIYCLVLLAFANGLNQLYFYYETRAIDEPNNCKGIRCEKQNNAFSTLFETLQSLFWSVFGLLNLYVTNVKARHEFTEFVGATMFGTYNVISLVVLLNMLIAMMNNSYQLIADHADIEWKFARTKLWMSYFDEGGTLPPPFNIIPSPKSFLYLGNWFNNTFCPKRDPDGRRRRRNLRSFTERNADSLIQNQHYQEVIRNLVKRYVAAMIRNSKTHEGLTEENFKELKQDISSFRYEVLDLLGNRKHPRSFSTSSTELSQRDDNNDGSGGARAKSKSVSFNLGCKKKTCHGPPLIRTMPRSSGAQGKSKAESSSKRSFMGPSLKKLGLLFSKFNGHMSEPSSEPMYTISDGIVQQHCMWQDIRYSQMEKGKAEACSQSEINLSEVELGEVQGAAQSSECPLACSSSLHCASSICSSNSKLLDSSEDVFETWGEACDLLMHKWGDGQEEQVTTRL
Assay: TRPC5 Fluorescence Assay - FLIPR format (HEK-TREx hTRPC5, Riluzole stimulation)
Type: cell-based
Procedure: • Cell line: ICLN-001633 • Base Cell: HEK • Channel: TRPC5 • Species: Human • Thaw ID: multiple • Passage: multiple
FLIPR Assay Buffer (Earls Balanced Salt Solution (EBSS) was prepared as follows:
Test Agent Preparation: Compounds were made up to, or supplied as, a 10 mM stock solution generally using DMSO as the vehicle. 10-point dose response curves were generated using the Echo-550 acoustic dispenser. Compound source plates were made by serially diluting compound stocks to create 10 mM, 1 mM, and 0.1 mM solutions in DMSO into Echo certified LDV plates. The Echo then serially spotted 100% DMSO stock solutions into source dose response plates to generate a 4-fold dilution scheme. 100% DMSO was added to the spotted dose response plates to bring the final volume to 5 μl. […] of the dose response stock plate was then spotted into pre-incubation and stimulation assay plates. 50 μl of pre-incubation buffer and 100 μl of stimulation buffer was then added to the plates resulting in a final assay test concentration range of 30 μM to 0.0001 μM with a final DMSO concentration of 0.3%.
Experimental Methods: Cells expressing TRPC5 (HEK-TREx hTRPC5) are plated onto 384 well, black PDL-coated microplates and maintained in TRPC5 growth media the day prior to use for experiments. TRPC5 expression is induced by the application of […] tetracycline at the time of plating. Media is removed from the plates and 10 μl of 4 μM of Fluo-4 AM (mixed with equal volume of Pluronic F-127) in EBSS is added to the cells. Cells are incubated at room temperature, protected from light, for 60-90 minutes. After the incubation period, the dye is removed and replaced with 10 μl of EBSS. Cell, pre-incubation and stimulation plates are loaded onto the FLIPR-II and the assay is initiated. The FLIPR measures a 10 second baseline and then adds 10 μl of 2× compounds (or controls). Changes in fluorescence are monitored for an additional 5 minutes. After the 5 minute pre-incubation, 20 μl of 2× Riluzole (with 1× compound or controls) is added to the cell plate. The final Riluzole stimulation concentration in the assay is 30 μM. After the Riluzole addition, changes in fluorescence are monitored for an additional 5 minutes.
Test Agent Effect: Test agent modulation of TRPC5 calcium response was determined as follows. After the Riluzole, fluorescence was monitored for a 5 minute period. The maximum relative fluorescene response (minus the control response of 1 μM of the control inhibitor) was captured and exported from the FLIPR. Test agent effect was calculated as % inhibition using the following formula: % inhibition=((RFU Test Agent−Plate Average RFU REF INHIB)/(Plate Average RFU Control−Plate Average RFU REF INHIB))×100

[1] = Table 7, read-out: TRPC5-FLIPR IC50
[2] = Table 9, read-out: hTRPCS-FLIPR IC50
[3] = Table 10, read-out: TRPCS-FLIPR IC50

SMILES	IC50 [2]	IC50 [3]	other results
CN(C)C(=O)c1nn(Cc2ccccc2C(F)F)c2c1CN(c1cn[nH]c(=O)c1Cl)CC2	–	–	IC50 [1]: 0.01 to 1000 nM
NC(=O)c1nn(Cc2ccccc2C(F)F)c2c1CN(c1cn[nH]c(=O)c1Cl)CC2	–	–	IC50 [1]: 0.01 to 1000 nM
CN(Cc1ccccc1C(F)(F)F)c1ncnc2c1CCN(c1cn[nH]c(=O)c1Cl)C2	–	–	IC50 [1]: 5000 to 10000 nM
CCCCn1c(Oc2cccc(F)c2)nc2c1CCN(c1cn[nH]c(=O)c1Cl)C2	–	–	IC50 [1]: 1000 to 5000 nM
O=c1[nH]ncc(N2CCc3c(ncnc3Oc3ccccc3C(F)(F)F)C2)c1Cl	–	–	IC50 [1]: 0.01 to 1000 nM
C[C@@H]1CN([C@@H](C)c2ccc(F)cc2C(F)(F)F)C(=O)CN1c1cn[nH]c(=O)c1Cl	0.01 to 1000 nM	–	–
C[C@@H]1CCC[C@H]1Cn1nnc2c1CCN(c1cn[nH]c(=O)c1Cl)C2	–	0.01 to 1000 nM	–
C[C@H]1CCC[C@H]1Cn1nnc2c1CCN(c1cn[nH]c(=O)c1Cl)C2	–	0.01 to 1000 nM	–
O=c1[nH]ncc(N2CCc3c(cnn3Cc3ccc(F)cc3CN3CCOCC3)C2)c1Cl	–	0.01 to 1000 nM	–
O=c1[nH]ncc(N2CCc3c(c(-c4ncn[nH]4)nn3Cc3ccccc3C(F)(F)F)C2)c1Cl	–	1000 to 5000 nM	–
C[C@H](c1ccc(F)cc1C(F)F)n1nnc2c1CCN(c1cn[nH]c(=O)c1Cl)C2	–	0.01 to 1000 nM	–
C[C@H](c1cc(F)ccc1C(F)(F)F)n1nnc2c1CCN(c1cn[nH]c(=O)c1Cl)C2	–	0.01 to 1000 nM	–
C[C@@H](c1ccc(Cl)cc1C(F)(F)F)n1nnc2c1CCN(c1cn[nH]c(=O)c1Cl)C2	–	0.01 to 1000 nM	–
O=c1[nH]ncc(C2CCc3c(nnn3Cc3ccccc3C(F)(F)F)C2)c1Cl (stereo not shown)	–	10000 to 500000 nM	–
N#Cc1nn(Cc2ccccc2C(F)(F)F)c2c1CN(c1cn[nH]c(=O)c1Cl)CC2	–	0.01 to 1000 nM	–
C[C@H](c1ccc(Cl)cc1C(F)(F)F)n1nnc2c1CCN(c1cn[nH]c(=O)c1Cl)C2	–	0.01 to 1000 nM	–
O=c1[nH]ncc(N2Cc3cnc(Oc4ccccc4C(F)(F)F)nc3C2)c1Cl	–	0.01 to 1000 nM	–

SMILES	IC50 [2]	IC50 [3]	other results
C[C@@H](c1ccc(F)cc1C(F)F)n1nc(C(N)=O)c2c1CCN(c1cn[nH]c(=O)c1Cl)C2	–	0.01 to 1000 nM	–
COC[C@H](c1ccc(F)cc1C(F)(F)F)n1cnc2c1CCN(c1cn[nH]c(=O)c1Cl)C2	–	0.01 to 1000 nM	–
COC[C@@H](c1ccc(F)cc1C(F)(F)F)n1cnc2c1CCN(c1cn[nH]c(=O)c1Cl)C2	–	1000 to 5000 nM	–
N[C@@H](c1nn(Cc2ccccc2C(F)(F)F)c2c1CN(c1cn[nH]c(=O)c1Cl)CC2)C(F)(F)F	–	1000 to 5000 nM	–
N[C@H](c1nn(Cc2ccccc2C(F)(F)F)c2c1CN(c1cn[nH]c(=O)c1Cl)CC2)C(F)(F)F	–	1000 to 5000 nM	–
NC[C@H](c1ccc(F)cc1C(F)(F)F)n1cnc2c1CCN(c1cn[nH]c(=O)c1Cl)C2	–	5000 to 10000 nM	–
O=c1[nH]ncc(N2CCc3c(nnn3Cc3ccc(F)cc3Cl)C2)c1Cl	–	0.01 to 1000 nM	–
CS(=O)(=O)c1nn(Cc2ccc(F)cc2C(F)F)c2c1CN(c1cn[nH]c(=O)c1Cl)CC2	–	0.01 to 1000 nM	–
CCS(=O)(=O)c1nn(Cc2ccc(F)cc2C(F)F)c2c1CN(c1cn[nH]c(=O)c1Cl)CC2	–	1000 to 5000 nM	–
C[C@H](c1ccc(F)cc1C(F)(F)F)n1[nH]c(=O)c2c1CCN(c1cn[nH]c(=O)c1Cl)C2	–	0.01 to 1000 nM	–
C[C@@H](c1ccc(F)cc1C(F)(F)F)n1[nH]c(=O)c2c1CCN(c1cn[nH]c(=O)c1Cl)C2	–	0.01 to 1000 nM	–
Nc1nn(Cc2ccc(F)cc2C(F)(F)F)c2c1CN(c1cn[nH]c(=O)c1Cl)CC2	–	0.01 to 1000 nM	–
CS(=O)(=O)c1nn(Cc2ccc(F)cc2C(F)(F)F)c2c1CN(c1cn[nH]c(=O)c1Cl)CC2	–	0.01 to 1000 nM	–
CN(c1ccc(F)cc1C(F)(F)F)c1n[nH]c2c1CCN(c1cn[nH]c(=O)c1Cl)C2	–	0.01 to 1000 nM	–
O=c1[nH]ncc(N2CCc3c(Nc4ccc(F)cc4C(F)(F)F)n[nH]c3C2)c1Cl	–	0.01 to 1000 nM	–
C[C@H](c1ccc(F)cc1C(F)(F)F)c1n[nH]c2c1CCN(c1cn[nH]c(=O)c1Cl)C2	–	0.01 to 1000 nM	–

Now from value to molecule, other results behind:

IC50 [2]	IC50 [3]	SMILES	other results
1000 to 5000 nM	–	CCn1nnc(C)c1CN1CCN(c2cn[nH]c(=O)c2Cl)CC1	–
1000 to 5000 nM	–	Cc1ccccc1C(O)C1CCN(c2cn[nH]c(=O)c2Cl)CC1 (stereo not shown)	–
1000 to 5000 nM	–	O=C(CN1CCN(c2cn[nH]c(=O)c2Cl)CC1)c1ccccc1C(F)(F)F	–
1000 to 5000 nM	–	Cc1ccccc1CC1(OC(N)=O)CCN(c2cn[nH]c(=O)c2Cl)CC1	–
0.01 to 1000 nM	–	C[C@H](O)c1ncccc1CN1CCN(c2cn[nH]c(=O)c2Cl)CC1	–
1000 to 5000 nM	–	CCc1ncccc1CC1(O)CCN(c2cn[nH]c(=O)c2Cl)CC1	–
1000 to 5000 nM	–	C[C@@H](O)c1ncccc1CN1CCN(c2cn[nH]c(=O)c2Cl)CC1	–
0.01 to 1000 nM	–	CCc1ncccc1[C@@H](C)N1CCN(c2cn[nH]c(=O)c2Cl)CC1	–
5000 to 10000 nM	–	CCc1ncccc1NC1CCN(c2cn[nH]c(=O)c2Cl)CC1	–
1000 to 5000 nM	–	O=c1[nH]ncc(N2CCN(S(=O)(=O)Cc3ccccc3C(F)(F)F)CC2)c1Cl	–
1000 to 5000 nM	–	CCc1ncccc1[C@@H](CC)N1CCN(c2cn[nH]c(=O)c2Cl)CC1	–
0.01 to 1000 nM	–	CCc1ncccc1[C@@H](CC)N1CCN(c2cn[nH]c(=O)c2C#N)CC1	–
0.01 to 1000 nM	–	CC[C@@H](c1cccnc1CC(C)C)C1CCN(c2cn[nH]c(=O)c2Cl)CC1	–
1000 to 5000 nM	–	CCc1ncccc1[C@H](CC)N1CCN(c2cn[nH]c(=O)c2C#N)CC1	–
1000 to 5000 nM	–	CCc1ncccc1[C@H](C(C)C)N1CCN(c2cn[nH]c(=O)c2Cl)CC1	–
0.01 to 1000 nM	–	CCc1ncccc1[C@@H](C(C)C)N1CCN(c2cn[nH]c(=O)c2Cl)CC1	–

IC50 [2]	IC50 [3]	SMILES	other results
1000 to 5000 nM	–	C[C@H](c1ccccc1C(F)(F)F)N1CCN(c2cn[nH]c(=O)c2Cl)CC1=O	–
0.01 to 1000 nM	–	CC(F)(F)c1ccccc1CC1(O)CCN(c2cn[nH]c(=O)c2Cl)CC1	–
1000 to 5000 nM	–	NC(=O)C1(Cc2ccccc2C(F)(F)F)CCN(c2cn[nH]c(=O)c2Cl)CC1	–
–	0.01 to 1000 nM	O=c1[nH]ncc(N2CCc3c(c(CN4CCOCC4)nn3Cc3ccccc3C(F)F)C2)c1Cl	–
–	0.01 to 1000 nM	O=C1COCCN1Cc1nn(Cc2ccccc2C(F)F)c2c1CN(c1cn[nH]c(=O)c1Cl)CC2	–
–	0.01 to 1000 nM	CNC(=O)c1nn([C@@H](C)c2ccccc2C(F)F)c2c1CN(c1cn[nH]c(=O)c1Cl)CC2	–
–	0.01 to 1000 nM	C[C@@H](c1ccccc1C(F)(F)F)n1nc(C(N)=O)c2c1CCN(c1cn[nH]c(=O)c1Cl)C2	–
–	0.01 to 1000 nM	COC[C@@H](c1ccccc1C(F)(F)F)n1cnc2c1CCN(c1cn[nH]c(=O)c1Cl)C2	–
–	0.01 to 1000 nM	C[C@H](c1cccnc1CC(F)F)n1nnc2c1CCN(c1cn[nH]c(=O)c1Cl)C2	–
–	0.01 to 1000 nM	CC(C)C(=O)Nc1nn(Cc2ccccc2C(F)(F)F)c2c1CN(c1cn[nH]c(=O)c1Cl)CC2	–
–	0.01 to 1000 nM	CC(=O)Nc1nn(Cc2ccccc2C(F)(F)F)c2c1CN(c1cn[nH]c(=O)c1Cl)CC2	–
–	0.01 to 1000 nM	C[C@H](c1ccccc1C(F)(F)F)n1[nH]c(=O)c2c1CCN(c1cn[nH]c(=O)c1Cl)C2	–
–	0.01 to 1000 nM	C[C@@H](c1ccccc1C(F)(F)F)n1[nH]c(=O)c2c1CCN(c1cn[nH]c(=O)c1Cl)C2	–
–	0.01 to 1000 nM	CN(c1ncc2c(n1)CN(c1cn[nH]c(=O)c1Cl)C2)c1ccccc1Cl	–
–	1000 to 5000 nM	Nc1nn(Cc2ccccc2C(F)(F)F)c2c1CN(c1cn[nH]c(=O)c1Cl)CC2	–
